In this assay the test system is E. coli. The assay can be described thus: Erythromycin MIC quoted in legend of growth assay with and without erythromycin. Conditions: Escherichia coli. Format: cell-based. The method, then: E. coli MG1655 was used as wild-type. The ALE selected rpoBE564V and rpoBE672K knock in strains were previously constructed by allelic replacement^7. To generate additional variants of […] and 672 positions, MAGE was performed on the wild-type strain by first transformation of recombineering plasmid pKD46^46, then inactivation of mutS with two nonsense mutations at residues 189 and 191 using an oligo (mutS_MUT). […] To perform each cycle of MAGE, the 1-Red system was induced with 0.5%-arabinose 45 minutes prior to generation of electrocompetent cells and oligo. Batch cultures were done in flask with M9 minimal media and 4 g/L of glucose at 37° C. or LB rich media. Glucose limited chemostats were carried out in a Bioflo 110 fermentor (New Brunswick Scientific, NJ). Glucose supplemented M9 was added to the reactor at 0.31 and 0.44 h^−1 dilution rates controlled by a peristaltic pump. Steady state was achieved after 3-5 residence times and was verified by biomass measurements. Phenotypic tests were performed by inoculation of media with an overnight pre-culture of glucose M9 media for all cases. Erythromycin was added to the media to the indicated concentration. The pH of M9 was adjusted to the indicated value with 6M HCl. Different substrates and mixtures were added to M9 to test growth in the indicated conditions. […]

Molecules are shown by their SMILES. Values after ≈ are worked out from the molar mass of the structure shown.

With `CC[C@H]1OC(=O)[C@H](C)[C@@H](O[C@H]2C[C@@](C)(OC)[C@@H](O)[C@H](C)O2)[C@H](C)[C@@H](O[C@@H]2O[C@H](C)C[C@H](N(C)C)[C@H]2O)[C@](C)(O)C[C@@H](C)C(=O)[C@H](C)[C@@H](O)[C@]1(C)O` [erythromycin], the MIC (in general, the lowest concentration that inhibits growth of the organism) was in the range of 512 to 1020 µg/mL (≈ 698 to 1400 µM).

The record behind these values is patent US10174307B2, “Performance enhancing genetic variants of E. coli” (priority 2014, dated 2019).
